Data published in ChEMBL document CHEMBL3132750, “4-Chlorocolchicine derivatives bearing a thiourea side chain at the C-7 position as potent anticancer agents” (Medchemcomm, 2014).

Tests used:
A549 = assay: Cytotoxicity against human A549 cells assessed as inhibition of cell proliferation after 96 hrs; format: functional, cell-based; details: A549, 96 h
HT-29 = assay: Cytotoxicity against human HT-29 cells assessed as inhibition of cell proliferation after 96 hrs; format: functional, cell-based; details: HT-29, 96 h
[1] = Metabolic stability in BALB/c mouse hepatic microsomes assessed per mg of microsomal protein at 1 umol/L preincubated for 5 mins by LC-MS/MS method; format: ADME, Liver, Microsome; details: 1 µM
HCT-116 = assay: Cytotoxicity against human HCT116 cells assessed as inhibition of cell proliferation after 96 hrs; format: functional, cell-based; details: HCT-116, 96 h
Tubulin = Tubulin (Sus scrofa, UniProt P02554+P02550); assay: Inhibition of tubulin polymerization assessed as reduction in tubulin assembly after 5 mins using pig microtubule protein by spectrophotometry; format: protein assay

SMILES | IC50 (A549) | IC50 (HT-29) | Intrinsic clearance [1] | IC50 (HCT-116) | IC50 (Tubulin)
COc1c(Cl)c2c(c(OC)c1OC)-c1ccc(OC)c(=O)cc1[C@@H](NC(C)=O)CC2 | 0.0099 µM | 0.0079 µM | 28 µL/min/mg | 0.0081 µM | –
COc1c(Cl)c2c(c(OC)c1OC)-c1ccc(OC)c(=O)cc1[C@@H](NC(=S)Nc1ccc(C#N)cc1)CC2 | 0.0678 µM | 0.0064 µM | – | 0.025 µM | –
COc1c(Cl)c2c(c(OC)c1OC)-c1ccc(OC)c(=O)cc1[C@@H](NC(=S)Nc1cccc(N(C)C)c1)CC2 | 0.0384 µM | 0.0044 µM | – | 0.0242 µM | –
COc1c(Cl)c2c(c(OC)c1OC)-c1ccc(OC)c(=O)cc1[C@@H](NC(=S)Nc1ccccn1)CC2 | 0.17 µM | 0.0346 µM | – | 0.0617 µM | –
COc1c(Cl)c2c(c(OC)c1OC)-c1ccc(OC)c(=O)cc1[C@@H](NC(=S)Nc1cccnc1)CC2 | 0.186 µM | 0.0316 µM | – | 0.0417 µM | –
COc1c(Cl)c2c(c(OC)c1OC)-c1ccc(OC)c(=O)cc1[C@@H](NC(=S)Nc1ccncc1)CC2 | 0.247 µM | 0.0235 µM | – | 0.0341 µM | –
COc1c(Cl)c2c(c(OC)c1OC)-c1ccc(OC)c(=O)cc1[C@@H](NC(=S)Nc1cccnn1)CC2 | 0.0396 µM | 0.0063 µM | – | 0.0132 µM | –
COc1c(Cl)c2c(c(OC)c1OC)-c1ccc(OC)c(=O)cc1[C@@H](NC(=S)Nc1cncnc1)CC2 | 0.941 µM | 0.154 µM | – | 0.177 µM | –
COc1c(Cl)c2c(c(OC)c1OC)-c1ccc(OC)c(=O)cc1[C@@H](NC(=S)Nc1cnccn1)CC2 | 0.0374 µM | 0.0194 µM | – | 0.033 µM | –
COc1c(Cl)c2c(c(OC)c1OC)-c1ccc(OC)c(=O)cc1[C@@H](NC(=S)Nc1nccs1)CC2 | 0.0101 µM | 0.0011 µM | – | 0.0065 µM | –
COc1c(Cl)c2c(c(OC)c1OC)-c1ccc(OC)c(=O)cc1[C@@H](NC(=S)Nc1nc(C)cs1)CC2 | 0.0076 µM | 0.0004 µM | – | 0.0024 µM | –
COc1c(Cl)c2c(c(OC)c1OC)-c1ccc(OC)c(=O)cc1[C@@H](NC(=S)Nc1cc[nH]n1)CC2 | 0.0078 µM | 0.0003 µM | 188 µL/min/mg | 0.0009 µM | –
COc1c(Cl)c2c(c(OC)c1OC)-c1ccc(OC)c(=O)cc1[C@@H](NC(=S)Nc1ccn(C)n1)CC2 | 0.0058 µM | 0.0007 µM | 37 µL/min/mg | 0.0013 µM | –
COc1c(Cl)c2c(c(OC)c1OC)-c1ccc(OC)c(=O)cc1[C@@H](NC(=S)Nc1cc(C)[nH]n1)CC2 | 0.002 µM | 0.0003 µM | 4 µL/min/mg | 0.0003 µM | 1.11 µM
COc1c(Cl)c2c(c(OC)c1OC)-c1ccc(OC)c(=O)cc1[C@@H](NC(=S)Nc1nc[nH]n1)CC2 | 0.0005 µM | 0.0002 µM | 88 µL/min/mg | 0.0003 µM | –
COc1c(Cl)c2c(c(OC)c1OC)-c1ccc(OC)c(=O)cc1[C@@H](NC(=S)Nc1ncn(C)n1)CC2 | 0.0348 µM | 0.006 µM | – | 0.0088 µM | –
COc1c(Cl)c2c(c(OC)c1OC)-c1ccc(OC)c(=O)cc1[C@@H](NC(=S)Nc1ncnn1C)CC2 | 0.0403 µM | 0.018 µM | – | 0.0339 µM | –
COc1c(Cl)c2c(c(OC)c1OC)-c1ccc(OC)c(=O)cc1[C@@H](NC(=S)Nc1n[nH]c(C)n1)CC2 | 0.0017 µM | 0.0003 µM | 223 µL/min/mg | 0.0005 µM | –
COc1c(Cl)c2c(c(OC)c1OC)-c1ccc(OC)c(=O)cc1[C@@H](NC(=S)Nc1cc(C)on1)CC2 | 0.0425 µM | 0.0056 µM | – | 0.0073 µM | –
COc1c(Cl)c2c(c(OC)c1OC)-c1ccc(OC)c(=O)cc1[C@@H](NS(=O)(=O)c1ccccc1)CC2 | 0.0368 µM | 0.0087 µM | – | 0.0258 µM | –
CCNC(=O)N[C@H]1CCc2c(Cl)c(OC)c(OC)c(OC)c2-c2ccc(OC)c(=O)cc21 | 0.247 µM | 0.0818 µM | – | 0.134 µM | –
COc1c(Cl)c2c(c(OC)c1OC)-c1ccc(OC)c(=O)cc1[C@@H](NC(=O)NC(C)C)CC2 | 0.289 µM | 0.181 µM | – | 0.189 µM | –
COc1c(Cl)c2c(c(OC)c1OC)-c1ccc(OC)c(=O)cc1[C@@H](NC(=O)Nc1ccccc1)CC2 | 0.0481 µM | 0.0352 µM | – | 0.036 µM | –
COc1c(Cl)c2c(c(OC)c1OC)-c1ccc(OC)c(=O)cc1[C@@H](NC(=O)N(C)C)CC2 | 0.192 µM | 0.0532 µM | – | 0.0504 µM | –
CCN(CC)C(=O)N[C@H]1CCc2c(Cl)c(OC)c(OC)c(OC)c2-c2ccc(OC)c(=O)cc21 | 0.0483 µM | 0.0439 µM | 21 µL/min/mg | 0.0443 µM | –
COc1c(Cl)c2c(c(OC)c1OC)-c1ccc(OC)c(=O)cc1[C@@H](NC(=O)N1CCCCC1)CC2 | 0.0266 µM | 0.0426 µM | 43 µL/min/mg | 0.0424 µM | –

SMILES | IC50 (A549) | IC50 (HT-29) | Intrinsic clearance [1] | IC50 (HCT-116) | IC50 (Tubulin)
COc1c(Cl)c2c(c(OC)c1OC)-c1ccc(OC)c(=O)cc1[C@@H](NC(N)=S)CC2 | 0.045 µM | 0.0061 µM | – | 0.009 µM | –
CNC(=S)N[C@H]1CCc2c(Cl)c(OC)c(OC)c(OC)c2-c2ccc(OC)c(=O)cc21 | 0.0109 µM | 0.0028 µM | – | 0.0063 µM | –
CCCNC(=S)N[C@H]1CCc2c(Cl)c(OC)c(OC)c(OC)c2-c2ccc(OC)c(=O)cc21 | 0.0099 µM | 0.0016 µM | – | 0.0043 µM | –
CCCCNC(=S)N[C@H]1CCc2c(Cl)c(OC)c(OC)c(OC)c2-c2ccc(OC)c(=O)cc21 | 0.0074 µM | 0.001 µM | – | 0.0018 µM | –
CCCCCCNC(=S)N[C@H]1CCc2c(Cl)c(OC)c(OC)c(OC)c2-c2ccc(OC)c(=O)cc21 | 0.212 µM | 0.176 µM | – | 0.171 µM | –
COc1c(Cl)c2c(c(OC)c1OC)-c1ccc(OC)c(=O)cc1[C@@H](NC(=S)NCCO)CC2 | 0.251 µM | 0.0527 µM | – | 0.0897 µM | –
COc1c(Cl)c2c(c(OC)c1OC)-c1ccc(OC)c(=O)cc1[C@@H](NC(=S)N(C)C)CC2 | 0.0107 µM | 0.0088 µM | – | 0.0084 µM | –
CCCN(CCC)C(=S)N[C@H]1CCc2c(Cl)c(OC)c(OC)c(OC)c2-c2ccc(OC)c(=O)cc21 | 0.0403 µM | 0.0382 µM | – | 0.0344 µM | –
COc1c(Cl)c2c(c(OC)c1OC)-c1ccc(OC)c(=O)cc1[C@@H](NC(=S)N(C)CCO)CC2 | 0.0449 µM | 0.0304 µM | – | 0.0326 µM | –
COc1c(Cl)c2c(c(OC)c1OC)-c1ccc(OC)c(=O)cc1[C@@H](NC(=S)N1CCC1)CC2 | 0.0333 µM | 0.0058 µM | – | 0.0084 µM | –
COc1c(Cl)c2c(c(OC)c1OC)-c1ccc(OC)c(=O)cc1[C@@H](NC(=S)N1CCCC1)CC2 | 0.0122 µM | 0.0075 µM | – | 0.0072 µM | –
COc1c(Cl)c2c(c(OC)c1OC)-c1ccc(OC)c(=O)cc1[C@@H](NC(=S)N1CCCCC1)CC2 | 0.0096 µM | 0.0061 µM | – | 0.0069 µM | –
COc1c(Cl)c2c(c(OC)c1OC)-c1ccc(OC)c(=O)cc1[C@@H](NC(=S)Nc1ccccc1)CC2 | 0.0244 µM | 0.0004 µM | – | 0.0012 µM | –
COc1ccccc1NC(=S)N[C@H]1CCc2c(Cl)c(OC)c(OC)c(OC)c2-c2ccc(OC)c(=O)cc21 | 0.0776 µM | 0.015 µM | – | 0.0294 µM | –
COc1cccc(NC(=S)N[C@H]2CCc3c(Cl)c(OC)c(OC)c(OC)c3-c3ccc(OC)c(=O)cc32)c1 | 0.0233 µM | 0.0005 µM | – | 0.0014 µM | –
COc1ccc(NC(=S)N[C@H]2CCc3c(Cl)c(OC)c(OC)c(OC)c3-c3ccc(OC)c(=O)cc32)cc1 | 0.008 µM | 0.0003 µM | – | 0.0014 µM | –
COc1c(Cl)c2c(c(OC)c1OC)-c1ccc(OC)c(=O)cc1[C@@H](NC(=S)Nc1ccccc1C#N)CC2 | 3.79 µM | 0.866 µM | – | 2.2 µM | –
COc1c(Cl)c2c(c(OC)c1OC)-c1ccc(OC)c(=O)cc1[C@@H](NC(=S)Nc1cccc(C#N)c1)CC2 | 0.126 µM | 0.0067 µM | – | 0.0253 µM | –
COc1c(CF)c2c(c(OC)c1OC)-c1ccc(OC)c(=O)cc1[C@@H](NC(C)=O)CC2 | 8.79 µM | 2.62 µM | – | 4.75 µM | –
COc1c(OC)c2c(c(C(F)F)c1OC)CC[C@H](NC(C)=O)c1cc(=O)c(OC)ccc1-2 | 0.0554 µM | 0.0481 µM | – | 0.0458 µM | –
COc1c(OC)c2c(c(C(F)(F)F)c1OC)CC[C@H](NC(C)=O)c1cc(=O)c(OC)ccc1-2 | 0.0552 µM | 0.035 µM | – | 0.0379 µM | –
COc1c(Cl)c2c(c(OC)c1OC)-c1ccc(OC)c(=O)cc1[C@@H](NS(C)(=O)=O)CC2 | 0.0454 µM | 0.0386 µM | – | 0.0369 µM | –
CCS(=O)(=O)N[C@H]1CCc2c(Cl)c(OC)c(OC)c(OC)c2-c2ccc(OC)c(=O)cc21 | 0.0481 µM | 0.0426 µM | 5 µL/min/mg | 0.0399 µM | –
COc1c(Cl)c2c(c(OC)c1OC)-c1ccc(OC)c(=O)cc1[C@@H](NS(=O)(=O)C(C)C)CC2 | 0.0449 µM | 0.0422 µM | – | 0.0407 µM | –
COc1c(Cl)c2c(c(OC)c1OC)-c1ccc(OC)c(=O)cc1[C@@H](NS(=O)(=O)CC(C)C)CC2 | 0.0408 µM | 0.0364 µM | – | 0.0332 µM | –
COc1cc2c(c(OC)c1OC)-c1ccc(OC)c(=O)cc1[C@@H](NC(C)=O)CC2 [COLCHICINE] | – | 0.0082 µM | 1 µL/min/mg | 0.0106 µM | –
